Data taken from publication PMC6152407, “Molecular Mechanisms Underlying Inhibitory Binding of Alkylimidazolium Ionic Liquids to Laccase” (Molecules : A Journal of Synthetic Chemistry and Natural …, 2017).
pKi: −log10 of the molar value.

Experiments:
Tve laccase = conditions: ABTS, pH 3, cited from earlier work
[1] = system: Myceliophthora thermophila (Mth) laccase; format: biochemical
Method: (§1) Reaction velocities (vo) were determined by mixing 50 μL of the properly diluted enzyme, 50 μL of substrate solution, and 2.4 mL of the media containing phosphate–citrate buffer (30 mM) and ILs in a 1 cm × 1 cm × 4 cm quartz colorimetric cell. […] All the reported data were averaged from at least three parallel measurements.

[2] = target: Myceliophthora thermophila (Mth) laccase; assay: Inhibition kinetics of laccase/ABTS oxidation (Lineweaver–Burk); format: biochemical; conditions: laccase/ABTS oxidation at pH 3; read-out: competitive inhibition constant Kic
Method: as §1
A series of vo were measured under varied concentrations of substrate ([S]) and IL ([I]). The Lineweaver–Burk diagrams were then constructed by plotting 1/vo against 1/[S] to estimate Km and Vmax according to Equation (1). The features of inhibition by different ILs were also deduced from the diagrams. Ki was correspondingly calculated from Equations (2), (3) or (4).
(2) (Competitive) 1/v0=KM/Vmax[S](1+[I]/Kic)+ 1/Vmax

[3] = set-up: method as in PMID 26556325; conditions: 80% aqueous solution; cited from earlier work
[4] = Stability of ABTS cation radicals in ILs/buffer media; conditions: 30 mM buffer without IL
Method: ABTS cation radicals (ABTS^+) were obtained from the oxidation of ABTS (10 mmol/L) with the laccase (50 U/L) in […] phosphate–citrate buffer (pH 3) at 40 °C for 2 h. Then, the reaction mixtures were centrifuged in an ultrafiltration tube (molecular weight cutoff 10 kDa; Millipore, Bedford, MA, USA) at 9000× g for 10 min). Enzymes and polymerized substances were removed. The oxidized products were incubated with buffer (30 mM, pH 2~7) and ionic liquids (50 mM) at 25 °C for 6 min. The concentration of each product was monitored by the spectrophotometer.

## [Cl-].[Na+] [NaCl]
Tve laccase
  uncompetitive constant Kiu: 18.1 mM
Tve laccase; read-out: competitive constant Kic
  pKi: 3.46

## CCCCn1cc[n+](C)c1.[Cl-] [[Bmim]Cl]
Mth laccase
  initial activity retained by re-dissolved complex: 65%
[1]; pH 3
  retained laccase activity: 65~75%

## CCCCCCCCCCn1cc[n+](C)c1 [[Dmim]Cl]
[1]; 50 mM IL, ABTS, pH 3 (Figure 2d)
  laccase inactivation: almost completely inactivated
[2]
  pKi: 3.74

## CCCCCCCC[n+]1ccn(C)c1 [[Omim]Cl]
[2]
  pKi: 2.67

## CC(C)=O [acetone]
[3]
  time for 50% reduction of ABTS^+: ≤ 7 min

## ABTS^+
[4]; pH 2
  half-life of ABTS^+: 6.17 h
[4]; pH 7
  half-life of ABTS^+: 0.728 h

## KCl
[1]; pH 3
  activity loss compared with other salts: more activity loss than alkylimidazolium chlorides
